According to patent US10835500B2, “Medicament for accelerated wound healing” (Symrise AG, priority 2014, dated 2020):

Molecular target: T1, recombinantly expressed OR2AT4 (Homo sapiens, UniProt A6NND4)
T1 construct: expressed in transfected cells; host or cells: Hana3A cells, transient transfection with pcDNA3-OR2AT4 by the calcium phosphate method
T1 sequence (A6NND4 1-320): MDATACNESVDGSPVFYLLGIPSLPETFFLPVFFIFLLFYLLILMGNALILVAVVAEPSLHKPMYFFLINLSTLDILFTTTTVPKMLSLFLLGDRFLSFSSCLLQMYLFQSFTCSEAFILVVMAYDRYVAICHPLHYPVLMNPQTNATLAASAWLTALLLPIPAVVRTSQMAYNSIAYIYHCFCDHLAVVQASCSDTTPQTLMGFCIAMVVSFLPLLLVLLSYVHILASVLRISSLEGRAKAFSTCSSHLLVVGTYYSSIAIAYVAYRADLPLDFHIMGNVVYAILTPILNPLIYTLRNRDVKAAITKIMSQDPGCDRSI
Experiment: Calcium imaging of transiently OR2AT4-transfected Hana3A cells
Assay type: cell-based
Conditions: for response rate of the Hana3A cells relative to the Ringer control: 1 mM odorant, 20 s stimulation, OR2AT4-transfected Hana3A cells; for agonist or antagonist to heterologously expressed OR2AT4: summary of calcium imaging and luciferase results
Procedure: Hana3A cells expressing stable endogenous olfactory transduction factors, which specifically target the incorporation of ORs into the cell membrane and thus improve activation capacity, were used as a heterologous expression system. Moreover, the 20 first N-terminal amino acids of rhodopsins (Rho-tag) were added before the N-terminus of the coding sequence of the OR, also in order to support heterologous expression.
A method established at the Department of Cell Physiology of Ruhr University Bochum for deorphanization studies is calcium imaging, in which activation of an OR by an odorant is visualized by a change in the intracellular calcium concentration of transfected cells using a fluorescent dye [cf. Wetzel et al. in: J. Neurosci. 19, pp. 7426-7433 (1999); Spehr et al. in: Science 299, pp. 2054-2058 (2003); Neuhaus et al. in: J. Biol. Chem. 284, pp. 16218-16225 (2009)]. In this method, the Hana3A cells are briefly (20 s) stimulated with an odorant and selected for odorant screenings of high concentrations (up to 1 mM) in order to confirm activation of ORs weakly expressed in Hana3A cells.
The activation of OR2AT4 by Sandalore® was first investigated by the calcium imaging method.
Odorants can not only activate a receptor, but can also act as antagonists to an OR.
Determination of receptive field of recombinantly expressed OR2AT4. […] As a control, untransfected Hana3A cells were simulated with Sandalore®. 100 μM of ATP was used at the end of each measurement as a positive control stimulus. […] The mean response rate including standard error of the cells is shown relative to the Ringer control. […] Isobornyl.: isobornyl cyclohexanol; S. öl: sandalwood oil. Kruskal-Wallis test with multiple comparison. *: p<0.05. […] Significance was determined between Hana3A cells transfected with OR2AT4-pcDNA3 and pcDNA3 without an insert. The dots show mean normalized luciferase-activity including standard error. Mann-Whitney U test; n=3 experiments. *: p<0.05; **: p<0.01; ***: p<0.001.
Antagonists of recombinantly expressed OR2AT4. […] 100 μM of ATP was used at the end of each measurement as a positive control stimulus. […] The mean response rate including standard error of the cells is shown relative to the Ringer control. Number of measurements: Ringer (23), Sandalore® (22), Sandalore®+dimetol (11), dimetol (11), Phenirat (14), Sandalore®+Phenirat (22), Oxyphenylon (12), and Sandalore®+Oxyphenylon (20). S: Sandalore®. Kruskal-Wallis test with multiple comparison. *: p<0.05.

Structure (SMILES)	response rate of the Hana3A cells relative to the Ringer control	agonist or antagonist to heterologously expressed OR2AT4	agonist or antagonist to heterologously expressed OR2AT4 (listed as Brahmanol)	effect on Sandalore-induced calcium signals in coapplication (coapplication with Sandalore 1:1, 1 mM respectively)	effect of the odorant alone on the Hana3A cells (odorant alone, 1 mM)	agonist or antagonist to heterologously expressed OR2AT4 (listed as Sandalore)
CC1=CCC(CCC(C)CO)C1(C)C (stereo not drawn) [Brahmanol®]	increased response rate in calcium imaging experiments, although the increase was not significant	agonists	only agonists			
CC(=O)CCc1ccc(O)cc1 [Oxyphenylon]		antagonists		significantly reduced	no effect	
CC1=CCC(CCC(C)C(C)O)C1(C)C (stereo not drawn) [Sandalore®]	significantly increased response rate	agonists				only agonists
